Literature values, collected in patent US6436449B2, “Use of a composition” (priority 2000, dated 2002).

What was measured:
burn eschars = details: mice; US 4,543,212
blood platelets = details: in vitro; US 4,543,212
[1] = injected into mice; US 4,543,212

**Q.** For xeronine, which “debridement of burn eschars” value (burn eschars) is on record?
**A.** Its value is “caused the debridement of burn eschars”.

**Q.** What about the “aggregation of blood platelets by adenosine diphosphate” value (blood platelets) of the same substance?
**A.** The value was “inhibited”.

**Q.** And the anti-inflammatory action [1]?
**A.** Its anti-inflammatory action is “excellent anti-inflammatory agents”.
